Assay results from US10028966B2 (Avalyn Pharma Inc., priority 2014, dated 2018).
Where two headings read alike, the source gives them in different places.

Experiments:
[1] = Process temperature development study (60°C dissolution, cooling to 25°C); assay type: physicochemical
Protocol: […]. […] The final volume of each formulation was 5 mL. […] Each sample was mixed thoroughly and agitated overnight at 60° C. Rapid cooling and step-wise cooling from 60° C. to 25° C. was performed. HPLC analysis was performed on samples taken after overnight incubation and after cooling to 25° C. Prior to HPLC analysis, formulations were filtered via syringe through a 0.45 μm PVDF filter.

[2] = Pharmacokinetics and lung-tissue distribution after oral gavage or intratracheal aerosol; assay type: in vivo, Sprague-Dawley rats; conditions: for half-life / Cmax / AUC(0-t): Sprague-Dawley, rat, inhaled or intranasal; for AUC(0-t): read-out: Plasma AUC0-6 hrs; for Lung Cmax: immediate post-dose calculated from direct-lung delivered dose
[3] = Pharmacokinetics and tissue distribution (lung, plasma, heart, kidney) of co-solvent formulations, intratracheal bolus aerosol; assay type: in vivo, Sprague-Dawley rats; conditions: for concentration at 0.167 hr / concentration at 0.333 hr / concentration at 0.667 hr / concentration at 0 h / concentration at 4 min / concentration at 2.5 h / concentration at 0.167 h / concentration at 0.333 h / concentration at 0.667 h / concentration at 1 h: Sprague-Dawley, rat, 4 mg/kg, Pirfenidone, Mean, about 4 mg/kg IT aerosol; for concentration at 0.167 hr / concentration at 0.333 hr / concentration at 0.667 hr: other: intratracheal bolus aerosol (nebulizing catheter); for concentration at 0 h / concentration at 4 min / concentration at 2.5 h / concentration at 0.167 h / concentration at 0.333 h / concentration at 0.667 h / concentration at 1 h: other: intratracheal bolus aerosol; for concentration at 4 min: 0.0667 hr
Protocol: Selected formulations were prepared for pharmacokinetic analysis following aerosol delivery to rat lung. […] Formulations prepared for this study are outlined in Table 9. […] The sample was agitated until completely dissolved. […] Filtered samples were analyzed by HPLC.

Structure (SMILES): Cc1ccc(=O)n(-c2ccccc2)c1 [pirfenidone, 5-methyl-1-phenyl-2-(1H)-pyridone]
- Pirfenidone (mg/mL) >Re-crystal, assay content after stepwise cooling to 25° C. and later re-crystallization ([1]; 4% EtOH, 8% PG, 0.04% PS80, 88% phosphate buffer (5 mM), pH 6.7): 26.8 mg/mL
- behaviour on rapid cooling to 25°C ([1]; after dissolution at 60°C): rapid recrystallization
- full dissolution concentration ([1]; heated to 60°C, 5 mM sodium phosphate pH 6.5 with ethanol, propylene glycol and/or polysorbate 80): ≥ 50 mg/mL
- concentration staying in solution ([1]; slow step-wise cooling 60 to 25°C, for several hours before re-crystallization): about 50 mg/mL
- half-life ([2]; lung, 1 mg/kg, aerosol 1 mg/kg, read-out: Lung T1/2 α): < 1 min
- half-life ([2]; lung, 1 mg/kg, aerosol 1 mg/kg, read-out: Lung T1/2 β): 45 min
- half-life ([2]; lung, 5 mg/kg, aerosol 5 mg/kg, read-out: Lung T1/2 α): < 1 min
- half-life ([2]; lung, 5 mg/kg, aerosol 5 mg/kg, read-out: Lung T1/2 β): 45 min
- half-life ([2]; plasma, 1 mg/kg, aerosol 1 mg/kg, read-out: Plasma T1/2): 30 min
- half-life ([2]; plasma, 5 mg/kg, aerosol 5 mg/kg, read-out: Plasma T1/2): 30 min
- Cmax ([2]; plasma, aerosol 1 mg/kg): 1100 ng/mL
- AUC(0-t) ([2]; plasma, aerosol 1 mg/kg): 900 ng·h/mL
- Cmax ([2]; plasma, aerosol 5 mg/kg): 7000 ng/mL
- AUC(0-t) ([2]; plasma, aerosol 5 mg/kg): 4500 ng·h/mL
- Lung AUC (for time >1 μg/g) ([2]; aerosol 1 mg/kg): 5.2 mg·h/kg
- Lung TOE, time of exposure over 1 μg/g lung tissue ([2]; aerosol 1 mg/kg): 5 min
- Lung AUC (for time >1 μg/g) ([2]; aerosol 5 mg/kg): 25.4 mg·h/kg
- Lung TOE, time of exposure over 1 μg/g lung tissue ([2]; aerosol 5 mg/kg): 84 min
- Lung Cmax ([2]; aerosol (bolus intratracheal) 1 mg/kg): 101 µg/g
- Lung Cmax ([2]; aerosol (bolus intratracheal) 5 mg/kg): 508 µg/g
- Lung AUC (for time >1 μg/g) ([2]; oral 70 mg/kg): 4.3 mg·h/kg
- concentration at 0.167 hr ([3]; heart, heart tissue, Group 1): 4910 ng/g
- concentration at 0.333 hr ([3]; heart, heart tissue, Group 1): 3850 ng/g
- concentration at 0.667 hr ([3]; heart, heart tissue, Group 1): 1800 ng/g
- concentration at 0.167 hr ([3]; heart, heart tissue, Group 2): 4100 ng/g
- concentration at 0.333 hr ([3]; heart, heart tissue, Group 2): 3130 ng/g
- concentration at 0.667 hr ([3]; heart, heart tissue, Group 2): 2190 ng/g
- concentration at 0.167 hr ([3]; heart, heart tissue, Group 6): 4950 ng/g
- concentration at 0.333 hr ([3]; heart, heart tissue, Group 6): 3430 ng/g
- concentration at 0.667 hr ([3]; heart, heart tissue, Group 6): 2220 ng/g
- concentration at 0 h ([3]; heart, heart tissue, Group 1): 20 ng/g
- concentration at 4 min ([3]; heart, heart tissue, Group 1): 7900 ng/g
- concentration at 2.5 h ([3]; heart, heart tissue, Group 1): 90 ng/g
- concentration at 0 h ([3]; heart, heart tissue, Group 2): 190 ng/g
- concentration at 4 min ([3]; heart, heart tissue, Group 2): 5920 ng/g
- concentration at 2.5 h ([3]; heart, heart tissue, Group 2): 120 ng/g
- concentration at 0 h ([3]; heart, heart tissue, Group 6): 80 ng/g
- concentration at 4 min ([3]; heart, heart tissue, Group 6): 6320 ng/g
- concentration at 2.5 h ([3]; heart, heart tissue, Group 6): 120 ng/g
- concentration at 0 h ([3]; kidney, kidney tissue, Group 1): 10 ng/g
- concentration at 4 min ([3]; kidney, kidney tissue, Group 1): 9880 ng/g
- concentration at 0.167 h ([3]; kidney, kidney tissue, Group 1): 6620 ng/g
- concentration at 0.333 h ([3]; kidney, kidney tissue, Group 1): 4870 ng/g
- concentration at 0.667 h ([3]; kidney, kidney tissue, Group 1): 2860 ng/g
- concentration at 0 h ([3]; kidney, kidney tissue, Group 2): 470 ng/g
- concentration at 4 min ([3]; kidney, kidney tissue, Group 2): 10800 ng/g
- concentration at 0.167 h ([3]; kidney, kidney tissue, Group 2): 8300 ng/g
- concentration at 0.333 h ([3]; kidney, kidney tissue, Group 2): 7440 ng/g
- concentration at 0.667 h ([3]; kidney, kidney tissue, Group 2): 3310 ng/g
- concentration at 1 h ([3]; kidney, kidney tissue, Group 2): 1750 ng/g
- concentration at 2.5 h ([3]; kidney, kidney tissue, Group 2): 180 ng/g
- concentration at 0 h ([3]; kidney, kidney tissue, Group 6): 270 ng/g
- concentration at 4 min ([3]; kidney, kidney tissue, Group 6): 12900 ng/g
- concentration at 0.167 h ([3]; kidney, kidney tissue, Group 6): 6650 ng/g
- concentration at 0.333 h ([3]; kidney, kidney tissue, Group 6): 4870 ng/g
- concentration at 0.667 h ([3]; kidney, kidney tissue, Group 6): 3530 ng/g
- concentration at 1 h ([3]; kidney, kidney tissue, Group 6): 1710 ng/g
- adverse events ([3]; about 4 mg/kg intratracheal bolus aerosol, co-solvent formulations, rats): No adverse events were noted
